# In US20200407370A1, “PEPTIDYLARGININE DEIMINASE INHIBITOR AND USE THEREOF” (Nanjing Transthera Biosciences Co., Ltd., priority 2018, published 2020):
# Read-outs that look alike come from different tables or passages of the source.
# Assays:
# [1] = Pharmacokinetics (PK) of the compound in rats; assay type: in vivo; conditions: rat, plasma, SD rats; for bioavailability / AUC(0-t) / clearance / Vd / half-life: n = 3; for bioavailability: read-out: F (absolute bioavailability); for clearance: read-out: Cl_obs iv (clearance) (converted); for Vd: read-out: Vz_obs iv (apparent volume of distribution); for Tmax: n = 3, median, read-out: Tmax po (time to maximum plasma concentration)
# Method: Experimental Example 3: Pharmacokinetics (PK) of the Compound in Rats
# The test compound was dissolved in a mixture of 5% v/v DMSO+20% v/v (30% v/v solutol (polyethylene glycol-15 hydroxystearate purchased from BASF, batch no. 84773247G0))+75% v/v brine to prepare a solution, which was then administered to SD rats by oral gavage at a dose of 5.0 mg/kg. Blood samples were collected at 15 min, 30 min, 1 h, 2 h, 4 h, 6 h, 8 h and 24 h.
# The test compound was dissolved in a mixture of 5% v/v DMSO+20% v/v (30% v/v solutol)+75% v/v brine to prepare a solution, which was administered to SD rats by intravenous bolus at a dose of 1 mg/kg. Blood samples were collected at 5 min, 15 min, 30 min, 1 h, 2 h, 4 h, 6 h, 8 h and 24 h.
# The animals were fixed, with tails warmed in a water bath 10 min before each sampling time point. About 100 μL of blood was collected via the tail vein, and the blood samples were collected in anticoagulation tubes containing EDTA-K2. The blood samples were centrifuged at 8,000 rpm for 6 min at 4° C. to give plasma samples within 30 min after collection. The plasma samples were stored in a refrigerator at −80° C. before test.
# The sample was taken out from the −80° C. refrigerator, and vortexed for 5 min after naturally thawed at room temperature. 20 μL of plasma sample was pipetted into a 1.5 mL centrifuge tube, and 200 μL of 100 ng/mL internal standard working solution (a solution of tolbutamide in methanol) was added. The resulting mixture was mixed, vortexed for 5 min, and then centrifuged at 12,000 rpm for 5 min. 50 μL of the supernatant was pipetted into a 96-well plate with 150 μL of water per well, and the plate was vortexed for 5 min before LC-MS/MS analysis.
# The concentration was calculated by Analyst 1.6.3 from AB Sciex. Parameters such as mean, standard deviation and coefficient of variation (excluding those output directly by Analyst 1.6.3) were calculated by Microsoft Excel. PK parameters were calculated by Pharsight Phoenix 6.1 software NCA (Tmax was in median).
# [2] = target: T1, Peptidylarginine deiminase 4 (PAD4) (Homo sapiens, UniProt Q9UM07); experiment: Assay of enzyme-inhibiting activity (PAD4, FAM-AcH4(1-5) peptide, Caliper detection); assay type: biochemical; conditions: 10 nM PAD4, 5 μM peptide, 0.1 mM Ca2+, pH 8.0
# T1 construct: purchased Cayman 10500
# Method: Experimental Example 1: Assay of Enzyme-Inhibiting Activity of Compound
# Sample: The compound disclosed herein prepared according to exemplary methods.
# Peptidylarginine deiminase 4 (PAD4): Cayman, Cat. No. 10500, Lot. No. 0519694;
# Carboxyfluorescein-labeled peptide (Peptide FAM-AcH4 (1-5)): GL Biochem, Cat. No. 0200046, Lot. No. P161110-TL545976;
# An appropriate amount of the compound to be assayed was dissolved in DMSO to 10 mM. An appropriate amount of 10 mM mother liquor of the compound to be assayed was diluted to 1.5 mM with DMSO, and the solution was then serially diluted 3-fold with DMSO to give 50× concentrations of gradient compound solutions. Finally, 10-fold dilution was carried out with reaction buffer (an aqueous solution of 100 mM HEPES (2-[4-(2-hydroxyethyl)piperazin-1-yl]ethanesulfonic acid) containing 0.01% v/v Triton, pH 8.0) to give 5× concentrations of gradient compound solutions (150 μM, 50 μM, 16.667 μM, 5.556 μM, 1.852 μM, 0.617 μM, 0.206 μM, 0.069 μM, 0.023 μM, and 0.008 μM).
# 1) Reaction buffer: aqueous solution of 100 mM HEPES (2-[4-(2-hydroxyethyl)piperazin-1-yl]ethanesulfonic acid) containing 0.01% v/v Triton, pH 8.0;
# 2) Stop solution: aqueous solution of 100 mM HEPES (2-[4-(2-hydroxyethyl)piperazin-1-yl]ethanesulfonic acid) containing 0.015% w/v Brij-35, 0.2% v/v Coating Reagent (coating solution) #3 (PE, part no. 760050) and 50 mM EDTA, pH 8.0;
# 3) 2.5× enzyme solution: An appropriate amount of PAD4 was diluted to 2.5× (final concentration: 10 nM) with reaction buffer;
# 4) 2.5× polypeptide solution: An appropriate amount of carboxyfluorescein -labeled peptide (FAM-AcH4(1-5) peptide) and CaCl2) solution was diluted to 2.5× (the final concentration of polypeptide: 5 μM, the final concentration of Ca^2+: 0.1 mM) with reaction buffer.
# 5 μL of 5× compound solutions or solvents with different concentrations were added to a 384-well plate, 10 μL of 2.5× enzyme solution was then added, and the plate was incubated at room temperature for 10 min. 10 μL of 2.5× polypeptide solution was then added to each well, and the plate was incubated at 28° C. for a certain period of time. 25 μL of stop solution was added to stop reaction. Caliper was used for detection. The inhibition rate was calculated according to the following formula:
# Inhibition percentage=(max−transformation)/(max−min)*100.
# “max” denotes DMSO control; and “min” denotes low control.
# [3] = IV 1 mg/kg, read-out: AUClast iv (area under concentration-time curve 0-24 h)
# [4] = IV 1 mg/kg, read-out: tz1/2 iv (terminal half-life) (converted)
# [5] = PO 5 mg/kg, read-out: AUClast po (area under concentration-time curve 0-24 h)
# [6] = PO 5 mg/kg, read-out: tz1/2 po (terminal half-life) (converted)
# T1 sequence (Q9UM07 whole entry): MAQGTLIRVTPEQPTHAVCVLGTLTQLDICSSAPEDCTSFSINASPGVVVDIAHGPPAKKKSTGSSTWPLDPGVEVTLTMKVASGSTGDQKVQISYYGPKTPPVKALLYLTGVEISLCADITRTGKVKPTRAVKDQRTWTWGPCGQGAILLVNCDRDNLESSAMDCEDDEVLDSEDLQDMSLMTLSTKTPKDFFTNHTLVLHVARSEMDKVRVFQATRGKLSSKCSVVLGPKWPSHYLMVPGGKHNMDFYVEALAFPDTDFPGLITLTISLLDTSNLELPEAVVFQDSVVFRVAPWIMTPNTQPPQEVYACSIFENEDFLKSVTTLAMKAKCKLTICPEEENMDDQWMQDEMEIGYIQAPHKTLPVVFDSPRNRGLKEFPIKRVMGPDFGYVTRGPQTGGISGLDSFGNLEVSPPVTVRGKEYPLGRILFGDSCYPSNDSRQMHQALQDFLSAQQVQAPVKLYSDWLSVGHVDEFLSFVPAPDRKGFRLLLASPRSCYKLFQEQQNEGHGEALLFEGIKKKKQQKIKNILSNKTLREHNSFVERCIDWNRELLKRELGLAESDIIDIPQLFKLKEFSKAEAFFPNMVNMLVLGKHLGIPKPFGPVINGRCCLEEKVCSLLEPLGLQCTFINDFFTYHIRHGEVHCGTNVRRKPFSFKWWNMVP
SMILES,"bioavailability ([1]; IV 1 mg/kg, PO 5 mg/kg)","AUC(0-t) [1, 3]",clearance ([1]; IV 1 mg/kg),Vd ([1]; IV 1 mg/kg),"half-life [1, 4]",Tmax ([1]; PO 5 mg/kg),"AUC(0-t) [1, 5]",IC50 [2],"half-life [1, 6]"
"CCn1c(-c2nc3cc(C(=O)N4CCC[C@@H](N)C4)cc(OC)c3n2C)cc2ccsc21 [Compound 3, (R)-(3-aminopiperidin-1-yl)(2-(6-ethyl-6H-thieno[2,3-b]pyrrol-5-yl)-7-methoxy-1-methyl-1H-benzo[d]imidazol-5-yl)methanone]",15.6%,1200 ng·h/mL,13.2 mL/min/kg,11.2 L/kg,9.97 h,6 h,934 ng·h/mL,200 nM,–
"COc1cc(C(=O)N2CCC[C@@H](N)C2)cc2nc(-c3cc4ccsc4n3CC3CC3)n(C)c12 [Compound 18, (R)-(3-aminopiperidin-1-yl)(2-(6-(cyclopropylmethyl)-6H-thieno[2,3-b]pyrrol-5-yl)-7-methoxy-1-methyl-1H-benzo[d]imidazol-5-yl)methanone]",46.6%,1010 ng·h/mL,16.7 mL/min/kg,5.64 L/kg,3.92 h,6 h,2360 ng·h/mL,36 nM,3.96 h
"CCn1c(-c2nc3cc(C(=O)N4CCC[C@@H](N)C4)cc(OC)c3n2C)cc2cc(C)sc21 [Compound 9, (R)-(3-aminopiperidin-1-yl)(2-(6-ethyl-2-methyl-6H-thieno[2,3-b]pyrrol-5-yl)-7-methoxy-1-methyl-1H-benzo[d]imidazol-5-yl)methanone]",41.8%,303 ng·h/mL,43.7 mL/min/kg,22 L/kg,5.96 h,6 h,633 ng·h/mL,110 nM,6.33 h

# Other lines, results leading:
"bioavailability ([1]; IV 1 mg/kg, PO 5 mg/kg)","AUC(0-t) [1, 3]",clearance ([1]; IV 1 mg/kg),Vd ([1]; IV 1 mg/kg),"half-life [1, 4]",Tmax ([1]; PO 5 mg/kg),"AUC(0-t) [1, 5]",IC50 [2],"half-life [1, 6]",SMILES
71.2%,3160 ng·h/mL,5 mL/min/kg,2.86 L/kg,6.94 h,8 h,11200 ng·h/mL,58 nM,13.2 h,"COc1cc(C(=O)N2CCC[C@@H](N)C2)cc2nc(-c3cc4ccsc4n3CC(C)C)n(C)c12 [Compound 20, (R)-(3-aminopiperidin-1-yl)(2-(6-isobutyl-6H-thieno[2,3-b]pyrrol-5-yl)-7-methoxy-1-methyl-1H-benzo[d]imidazol-5-yl)methanone]"
35%,7680 ng·h/mL,1.67 mL/min/kg,1.76 L/kg,14.6 h,6 h,13500 ng·h/mL,40 nM,12 h,"COc1cc(C(=O)N2CCC[C@@H](N)C2)cc2nc(-c3cc4ccsc4n3CC3CCC3)n(C)c12 [Compound 22, (R)-(3-aminopiperidin-1-yl)(2-(6-(cyclobutylmethyl)-6H-thieno[2,3-b]pyrrol-5-yl)-7-methoxy-1-methyl-1H-benzo[d]imidazol-5-yl)methanone]"
31.2%,887 ng·h/mL,18 mL/min/kg,11.6 L/kg,7.9 h,6 h,1380 ng·h/mL,25 nM,7.52 h,"COc1cc(C(=O)N2CCC[C@@H](N)C2)cc2nc(-c3cc4cc(C)sc4n3CC3CC3)n(C)c12 [Compound 23, (R)-(3-aminopiperidin-1-yl)(2-(6-(cyclopropylmethyl)-2-methyl-6H-thieno[2,3-b]pyrrol-5-yl)-7-methoxy-1-methyl-1H-benzo[d]imidazol-5-yl)methanone]"
33.3%,772 ng·h/mL,15.3 mL/min/kg,8.73 L/kg,6.93 h,8 h,1290 ng·h/mL,55 nM,4.7 h,"COc1cc(C(=O)N2CCC[C@@H](N)C2)cc2nc(-c3cc4ccsc4n3CC(F)(F)F)n(C)c12 [Compound 21, (R)-(3-aminopiperidin-1-yl)(7-methoxy-1-methyl-2-(6-(2,2,2-trifluoroethyl)-6H-thieno[2,3-b]pyrrol-5-yl)-1H-benzo[d]imidazol-5-yl)methanone]"
